Experimental data as given in ChEMBL document CHEMBL5107997, “Discovery and biological evaluation of 1-{2,7-diazaspiro[3.5]nonan-2-yl}prop-2-en-1-one derivatives as covalent inhibitors of KRAS G12C with favorable metabolic stability and anti-tumor activity” (Bioorg Med Chem, 2022).

Legend:
[1] = biological target: GTPase KRas (Homo sapiens, UniProt P01116, G12C); test: Inhibition of biotinylated Avi-tagged GDP-bound KRAS G12C mutant (1 to 185 residues) (unknown origin) assessed as inhibition of KRAS G12C mutant/SOS/GST-tagged c-Raf complex formation incubated for 1 hr and measured by fluorescence based assay
[2] = Downregulation of pERK levels in human NCI-H1373 cells measured after 2 hrs by EISA; format: functional, cell-based; conditions: NCI-H1373, 2 h
[3] = Downregulation of pERK levels in human A-375 cells measured after 2 hrs by EISA; format: functional, cell-based; conditions: A-375, 2 h
[4] = system: NCI-H1373; test: Growth inhibition of human NCI-H1373 cells assessed as cell viability after 6 days by CellTiter-Glo assay; format: functional, cell-based; conditions: NCI-H1373, 144 h
[5] = system: A-375; test: Growth inhibition of human A-375 cells assessed as cell viability after 6 days by CellTiter-Glo assay; format: functional, cell-based; conditions: A-375, 144 h
[6] = Aqueous solubility of the compound in pH 6.8 JP2 fluid measured after 20 hrs by disintegration test; format: physicochemical
[7] = Intrinsic clearance in human liver microsomes at 0.1 to 0.2 umol/L measured after 30 mins in presence of NADPH by LC-MS/MS analysis; format: ADME, Microsome; conditions: dose 0.1-0.2 µmol/L, read-out: CLH
[8] = Intrinsic clearance in mouse liver microsomes at 0.1 to 0.2 umol/L measured after 30 mins in presence of NADPH by LC-MS/MS analysis; format: ADME, Microsome; conditions: dose 0.1-0.2 µmol/L, read-out: CLH
[9] = Plasma concentration in nude mouse xenografted with human NCI-H1373 cells at 100 mg/kg, po administered as single dose and measured at 1 hr by LC/MS-MS analysis; format: ADME, organism-based
[10] = Plasma concentration in nude mouse xenografted with human NCI-H1373 cells at 100 mg/kg, po administered as single dose and measured at 6 hr by LC/MS-MS analysis; format: ADME, organism-based
[11] = Drug uptake in tumor of nude mouse xenografted with human NCI-H1373 cells at 100 mg/kg, po administered as single dose and measured at 6 hr by LC/MS-MS analysis; format: ADME, organism-based, Neoplasm; conditions: read-out: Drug uptake
[12] = Plasma concentration in nude mouse xenografted with human NCI-H1373 cells at 30 mg/kg, sc administered as single dose and measured at 1 hr by LC/MS-MS analysis; format: ADME, organism-based
[13] = Plasma concentration in nude mouse xenografted with human NCI-H1373 cells at 30 mg/kg, sc administered as single dose and measured at 6 hr by LC/MS-MS analysis; format: ADME, organism-based
[14] = Drug uptake in tumor of nude mouse xenografted with human NCI-H1373 cells at 30 mg/kg, sc administered as single dose and measured at 6 hr by LC/MS-MS analysis; format: ADME, organism-based, Neoplasm; conditions: read-out: Drug uptake
[15] = system: NCI-H1373; test: Antitumor activity against human NCI-H1373 cells xenografted in nude mouse assessed as inhibition of p-ERK levels at 33 mg/kg, sc administered as single dose and measured after 6 hrs; format: functional
[16] = system: NCI-H1373; test: Antitumor activity against human NCI-H1373 cells xenografted in nude mouse assessed as tumor growth inhibition at 3 mg/kg, sc administered as single dose; format: functional; conditions: read-out: TGI
[17] = system: NCI-H1373; test: Antitumor activity against human NCI-H1373 cells xenografted in nude mouse assessed as tumor growth inhibition at 10 mg/kg, sc administered as single dose; format: functional; conditions: read-out: TGI
[18] = system: NCI-H1373; test: Antitumor activity against human NCI-H1373 cells xenografted in nude mouse assessed as tumor growth inhibition at 30 mg/kg, sc administered as single dose; format: functional; conditions: read-out: TGI
[19] = Toxicity in nude mouse xenografted with human NCI-H1373 cells assessed as effect on body weight at 3 to 30 mg/kg, sc; format: organism-based; conditions: in vivo, dose 3-30 mg/kg
[20] = system: GTPase KRas (Homo sapiens), P01116 [G12C]; test: Inhibition of biotinylated Avi-tagged GDP-bound KRAS G12C mutant (1 to 185 residues) (unknown origin) assessed as inhibition of KRAS G12C mutant/SOS/GST-tagged c-Raf complex formation at 3 uM incubated for 1 hr and measured by fluorescence based assay relative to control

SMILES: C=CC(=O)N1CC2(CCN(c3nc(OCCCN4CCCCC4)nc4c(F)c(-c5c(C)ccc6[nH]ncc56)c(Cl)cc34)CC2)C1
- IC50 [1]: 370 nM

SMILES: C=CC(=O)N1CC2(CCN(c3nc(OCCCN4CCOCC4)nc4c(F)c(-c5c(C)ccc6[nH]ncc56)c(Cl)cc34)CC2)C1
- IC50 [1]: 650 nM

SMILES: C=CC(=O)N1CC2(CCN(c3nc(OC4(CN(C)C)CCC4)nc4c(F)c(-c5c(C)ccc6[nH]ncc56)c(Cl)cc34)CC2)C1
- IC50 [1]: 770 nM

SMILES: C=CC(=O)N1CCC2(CC1)CN(c1nc(NC3CCN(C)CC3)nc3c(F)c(-c4c(C)ccc5[nH]ncc45)c(Cl)cc13)C2
- IC50 [1]: > 30000 nM

SMILES: C=CC(=O)N1CC2(CCN(c3nc(OCCN(C)C)nc4c(F)c(-c5c(C)ccc6[nH]ncc56)c(Cl)cc34)CC2)C1
- IC50 [1]: 340 nM

SMILES: C=CC(=O)N1CC2(CCN(c3nc(NC4CCN(C)CC4)nc4c(F)c(-c5c(C)ccc6[nH]ncc56)c(Cl)cc34)CC2)C1
- IC50 [1]: 350 nM
- IC50 [2]: 380 nM
- IC50 [3]: > 10 µM
- IC50 [4]: 390 nM
- IC50 [5]: 2800 nM

SMILES: C=CC(=O)N1CC2(CCN(c3nc(OC4CCOCC4)nc4c(F)c(-c5c(C)ccc6[nH]ncc56)c(Cl)cc34)CC2)C1
- IC50 [1]: 2100 nM

SMILES: C=CC(=O)N1CC2(CCN(c3nc(OC4CCN(C)CC4)nc4c(F)c(-c5c(C)ccc6[nH]ncc56)c(Cl)cc34)CC2)C1
- IC50 [1]: 70 nM
- IC50 [2]: 96 nM
- IC50 [4]: 100 nM
- IC50 [5]: 2900 nM
- solubility at 20 h [6]: > 100 µM
- CLint scaled [7]: 35 mL/min/kg
- CLint scaled [8]: 115 mL/min/kg

SMILES: C=CC(=O)N1CC2(CCN(c3nc(OC4CCN(CC)CC4)nc4c(F)c(-c5c(C)ccc6[nH]ncc56)c(Cl)cc34)CC2)C1
- IC50 [1]: 77 nM
- IC50 [2]: 140 nM
- IC50 [4]: 120 nM
- IC50 [5]: 3500 nM
- solubility at 20 h [6]: > 100 µM
- CLint scaled [7]: 37 mL/min/kg
- CLint scaled [8]: 115 mL/min/kg
- concentration at 1 h [9]: 670 nM
- concentration at 6 h [10]: 130 nM
- concentration at 6 h [11]: 70 nM
- concentration at 1 h [12]: 3.8 µM
- concentration at 6 h [13]: 720 nM
- concentration at 6 h [14]: 740 nM
- inhibition in vivo at 33 mg/kg [15]: 63%
- inhibition in vivo at 3 mg/kg [16]: 33%
- inhibition in vivo at 10 mg/kg [17]: 50%
- inhibition in vivo at 30 mg/kg [18]: 92%
- Activity [19]: Non-Toxic

SMILES: C=CC(=O)N1CC2(CCN(c3nc(N(C)C4CCN(CC)CC4)nc4c(F)c(-c5c(C)ccc6[nH]ncc56)c(Cl)cc34)CC2)C1
- IC50 [1]: 3200 nM

SMILES: C=CC(=O)N1CC2(CCN(c3nc(SC4CCN(CC)CC4)nc4c(F)c(-c5c(C)ccc6[nH]ncc56)c(Cl)cc34)CC2)C1
- IC50 [1]: 940 nM

SMILES: C=CC(=O)N1CC2(C1)CN(c1nc(NC3CCN(C)CC3)nc3c(F)c(-c4c(C)ccc5[nH]ncc45)c(Cl)cc13)C2
- IC50 [1]: 3000 nM
- inhibition [20]: 60%

SMILES: C=CC(=O)N1CC2(CCN(c3nc(OCCCN(C)C)nc4c(F)c(-c5c(C)ccc6[nH]ncc56)c(Cl)cc34)CC2)C1
- IC50 [1]: 260 nM

SMILES: CCN1CCC(Oc2nc(N3CCC4(CC3)CN(C(=O)/C=C/CN3CCOCC3)C4)c3cc(Cl)c(-c4c(C)ccc5[nH]ncc45)c(F)c3n2)CC1
- IC50 [1]: > 10000 nM

SMILES: C=CC(=O)N1CC2(CCN(c3nc(NC4CCN(C)CC4)nc4c(F)c(-c5c(C)ccc6[nH]ncc56)c(Cl)cc34)C2)C1
- IC50 [1]: 160 nM
- IC50 [2]: 550 nM
- IC50 [3]: > 10 µM
- IC50 [4]: 950 nM
- IC50 [5]: 4000 nM

SMILES: C=CC(=O)N1CCC2(C1)CN(c1nc(NC3CCN(C)CC3)nc3c(F)c(-c4c(C)ccc5[nH]ncc45)c(Cl)cc13)C2
- IC50 [1]: 18000 nM

SMILES: C=CC(=O)N1CC2(CCN(c3nc(OCC4CCN(C)CC4)nc4c(F)c(-c5c(C)ccc6[nH]ncc56)c(Cl)cc34)CC2)C1
- IC50 [1]: 130 nM

SMILES: C=CC(=O)N1CCN(c2nc(NC3CCN(C)CC3)nc3c(F)c(-c4c(C)ccc5[nH]ncc45)c(Cl)cc23)CC1
- IC50 [1]: 470 nM
- IC50 [2]: 430 nM
- IC50 [3]: > 10 µM
- IC50 [4]: 650 nM
- IC50 [5]: 1100 nM
